Data reported in patent publication US7098340B2, “Benzyl sulfonamide derivatives” (Warner Lambert Company LLC, priority 2003, dated 2006).

Molecular target: T1, androgen receptor (Homo sapiens, UniProt P10275)
T1 sequence (P10275 1-920 Q868H): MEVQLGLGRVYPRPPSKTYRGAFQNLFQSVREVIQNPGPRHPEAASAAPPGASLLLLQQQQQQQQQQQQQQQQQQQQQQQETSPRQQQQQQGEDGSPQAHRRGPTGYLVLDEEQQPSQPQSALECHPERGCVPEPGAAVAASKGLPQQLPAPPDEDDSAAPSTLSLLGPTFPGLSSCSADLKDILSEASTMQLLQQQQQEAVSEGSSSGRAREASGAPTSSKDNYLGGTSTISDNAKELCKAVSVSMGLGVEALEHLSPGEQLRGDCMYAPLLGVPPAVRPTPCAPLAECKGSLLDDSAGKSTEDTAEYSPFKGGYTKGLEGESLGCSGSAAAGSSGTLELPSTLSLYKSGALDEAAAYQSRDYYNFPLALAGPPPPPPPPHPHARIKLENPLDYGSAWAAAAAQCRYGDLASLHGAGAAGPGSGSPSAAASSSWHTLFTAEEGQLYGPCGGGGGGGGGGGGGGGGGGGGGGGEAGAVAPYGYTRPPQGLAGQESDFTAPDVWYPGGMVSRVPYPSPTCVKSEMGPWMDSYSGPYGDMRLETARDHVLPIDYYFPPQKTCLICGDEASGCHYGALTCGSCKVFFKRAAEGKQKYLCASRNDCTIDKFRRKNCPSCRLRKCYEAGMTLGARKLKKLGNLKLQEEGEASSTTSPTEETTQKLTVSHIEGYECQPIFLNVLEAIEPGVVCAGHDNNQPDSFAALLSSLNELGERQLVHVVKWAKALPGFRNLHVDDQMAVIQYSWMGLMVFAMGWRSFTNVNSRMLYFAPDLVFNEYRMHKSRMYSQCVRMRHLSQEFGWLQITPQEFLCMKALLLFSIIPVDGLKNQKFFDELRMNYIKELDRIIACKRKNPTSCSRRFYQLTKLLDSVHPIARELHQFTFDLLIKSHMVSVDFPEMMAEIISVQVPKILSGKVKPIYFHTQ
Experiment: AR Antagonist Cell Assay (MMTV-luciferase reporter, DHT-stimulated)
Type: cell-based
Conditions: MDA-MB453-MMTV clone 54-19 cells; antagonism of 100 pM DHT, 17 hr, luciferase readout
Procedure: The compounds ability to antagonize the effects of androgen on the androgen receptor were determined in the protocol described immediately below.
Experimental Procedure for AR Antagonist Cell Assay
Cell line: MDA-MB453-MMTV clone 54–19. This cell line is a stable transfected cell line with MDA-MB453 cell background (human breast tumor cell expressing high level of androgen receptor). A MMTV minimal promoter containing ARE was first cloned in front of a firefly luciferase reporter gene. Then the cascade was cloned into transfection vector pUV120puro. Electroporation method was used for transfecting MDA-MB-453 cell. Puromycin resistant stable cell line was selected.
Cell Culture Media and Reagents:
Culture medium: DMEM (high glucose, Gibco cat #: 11960-044), 10% FBS, and 1% L-glutamine
Plating medium: DMEM (phenol red free), 10% charcoal treated HyClone serum, 1% L-glutamine
Assay medium: DMEM (phenol red free), 1% charcoal treated HyClone serum, 1% L-glutamine, and 1% penicillin/streptomycin
3× luciferase buffer: 2% beta-mercaptoethanol, 0.6% ATP, 0.0135% luciferine in cell lysis buffer
• 1. Cells are maintained in culture medium, splitting cells when they reach 80–90% confluence • 2. To test compounds, 10,000 cells/well are plated to opaque 96 cell culture plate in 100 ul/well plating medium, culture for overnight at 37° C. in cell culture incubator • 3. Carefully remove plating medium, then add 80 ul/well of pre-warmed assay medium, add 10 ul/well testing compound (final concentration at 10 uM or 1 uM), incubate at 37° C. for 30 minutes • 4. Add 10 ul/well freshly prepared DHT (final concentration at 100 pM) to each well, incubate at 37° C. for 17 hr (overnight) • 5. Add 50 ul/well 3× luciferase buffer, incubate at room temperature for 5 minutes, then count on Luminometer.
The fold induction over background by 100 pM DHT in the absence of testing compounds is standardized as 100% and experimental result is expressed as percentage of inhibition by testing compounds.

IC50 | SMILES
4.08 µM | COc1ccccc1NS(=O)(=O)c1ccc(Cc2ccc3oc(=O)cc(C(F)(F)F)c3c2)cc1 [Example 123, N-(2-Methoxyphenyl)-4-(2-oxo-4-trifluoromethyl-2H-chromen-6-ylmethyl)-benzenesulfonamide]
> 10 µM | O=c1cc(C(F)(F)F)c2cc(Cc3ccc(S(=O)(=O)Nc4cc5ccccc5cn4)cc3)ccc2o1 [Example 136, N-Isoquinolin-3-yl-4-(2-oxo-4-trifluoromethyl-2H-chromen-6-ylmethyl)benzenesulfonamide]
4.74 µM | O=c1cc(C(F)(F)F)c2cc(Cc3ccc(S(=O)(=O)Nc4cccc(Cc5ccccc5)c4)cc3)ccc2o1 [Example 149, N-(3-Benzylphenyl)-4-(2-oxo-4-trifluoromethyl-2H-chromen-6-ylmethyl)benzenesulfonamide]
6.5 µM | O=c1cc(C(F)(F)F)c2cc(Cc3ccc(S(=O)(=O)Nc4ccc(-n5ccc(C(F)(F)F)n5)cc4)cc3)ccc2o1 [Example 155, 4-(2-Oxo-4-trifluoromethyl-2H-chromen-6-ylmethyl)-N-[4-(3-trifluoromethylpyrazol-1-yl)phenyl]benzenesulfonamide]
> 10 µM | CC(C)CCNS(=O)(=O)c1ccc(Cc2ccc3oc(=O)cc(C(F)(F)F)c3c2)cc1 [Example 159, N-(3-Methylbutyl)-4-(2-oxo-4-trifluoromethyl-2H-chromen-6-ylmethyl)benzenesulfonamide]

Continued, compound first:

SMILES | IC50
O=c1cc(C(F)(F)F)c2cc(Cc3ccc(S(=O)(=O)NCc4ccccc4Sc4ccccc4CO)cc3)ccc2[nH]1 [Example 94, N-[2-(2-Hydroxymethyl-phenylsulfanyl)benzyl]-4-(2-oxo-4-trifluoromethyl-1,2-dihydroquinolin-6-ylmethyl)-benzenesulfonamide] | > 10 µM
Cc1ccc(-c2ccccc2)cc1NS(=O)(=O)c1ccc(Cc2ccc3[nH]c(=O)cc(C(F)(F)F)c3c2)cc1 [Example 22, N-(4-Methylbiphenyl-3-yl)-4-(2-oxo-4-trifluoromethyl-1,2-dihydroquinolin-6-ylmethyl)-benzenesulfonamide] | > 10 µM
O=c1cc(C(F)(F)F)c2cc(Cc3ccc(S(=O)(=O)NCc4c(F)cccc4Cl)cc3)ccc2[nH]1 [Example 78, N-(2-Chloro-6-fluorobenzyl)-4-(2-oxo-4-trifluoromethyl-1,2-dihydroquinolin-6-ylmethyl)-benzenesulfonamide] | > 10 µM
O=c1cc(C(F)(F)F)c2cc(Cc3ccc(S(=O)(=O)NCc4cc(C(F)(F)F)ccc4F)cc3)ccc2[nH]1 [Example 90, N-(2-Fluoro-5-trifluoromethylbenzyl)-4-(2-oxo-4-trifluoromethyl-1,2-dihydroquinolin-6-ylmethyl)-benzenesutfonamide] | 2.62 µM
N#Cc1cccc(NS(=O)(=O)c2ccc(Cc3ccc4[nH]c(=O)cc(C(F)(F)F)c4c3)cc2)c1 [Example 16, N-(3-Cyanophenyl)-4-(2-oxo-4-trifluoromethyl-1,2-dihydroquinolin-6-ylmethyl)-benzenesulfonamide] | 2.02 µM
O=c1cc(C(F)(F)F)c2cc(Cc3ccc(S(=O)(=O)Nc4ccc(Cl)cc4)cc3)ccc2[nH]1 [Example 26, N-(4-Chlorophenyl)-4-(2-oxo-4-trifluoromethyl-1,2-dihydroquinolin-6-ylmethyl)-benzenesulfonamide] | 1.97 µM
CC(O)c1cccc(NS(=O)(=O)c2ccc(Cc3ccc4[nH]c(=O)cc(C(F)(F)F)c4c3)cc2)c1 (stereo not shown) [Example 23, N[-3-(1-Hydroxyethyl)phenyl]-4-(2-oxo-4-trifluoromethyl-1,2-dihydroquinolin-6-ylmethyl)-benzenesulfonamide] | 1.67 µM
CCN(Cc1ccncc1)S(=O)(=O)c1ccc(Cc2ccc3[nH]c(=O)cc(C(F)(F)F)c3c2)cc1 [Example 5, N-Ethyl-4-(2-oxo-4-trifluoromethyl-1,2-dihydroquinolin-6-ylmethyl)-N-pyridin-4-ylmethylbenzenesulfonamide] | > 10 µM
